Reference: US20090305993A1, “METHODS AND COMPOSITION FOR THE TREATMENT OF GASTROINTESTINAL DISORDERS” (IRONWOOD PHARMACEUTICALS, INC., priority 2006, published 2009)
Where a SMILES comes first, the peptide text is derived from it. Bridges are numbered along the chain shown (N, C = ends).

Experiments:
WT and GC-C KO mice = assay: TNBS visceral hypersensitivity model in WT and GC-C KO mice; format: in vivo, mouse; conditions: oral 0.01 μg/kg, FIG. 7d
Method: TNBS induced visceral hypersensitivity was assessed in WT and GC-C KO mice. Two groups (WT and GC-C KO) of male mice (22-25 g) were surgically prepared for electromyographic (EMG) recordings. Three electrodes were implanted in the striated muscles of the abdomen for EMG recording of abdominal contractions. Colorectal distension (CRD) was performed with a balloon inflated by 10s steps of 0.02 ml from 0 to 0.12 ml. Under basal conditions mice were submitted to control CRD (time 0) followed by oral administration of SEQ ID NO:3 (0.01 and 0.3 μg/kg) or vehicle only (distilled water, 1 ml) at 3 hours. One hour post dosing the CRD procedure was repeated. Abdominal EMG contractile response to colorectal distension in basal conditions in both WT and GC-C KO mice (12-14 mice per group) was determined in the absence of vehicle and SEQ ID NO:3, and the mean+/−standard error of the mean (SEM) is graphically depicted in FIG. 7c.
For TNBS induced visceral hypersensitivity conditions, mice were submitted to control CRD (time 0) and TNBS (20 mg/kg) was administered at 3 days. […] The effect of SEQ ID NO:3 ([…]) on abdominal response to colorectal distension after TNBS in WT and GC-C KO mice (12-14 per group) at a volume distension of […] was determined and the mean+/−standard error of the mean (SEM) is graphically depicted in FIG. 7d.

intestinal GC-C receptor = target: T1, intestinal GC-C receptor (Homo sapiens, UniProt P25092); assay: intestinal GC-C receptor activity assay (cyclic GMP EIA) in T84 cells; format: cell-based; conditions: chemically synthesized peptides, FIGS. 2a and 2b
T1 construct: monolayers of T84 cells in 24-well plates; host or cells: T84 human colon carcinoma cells
T1 sequence (P25092 24-1073): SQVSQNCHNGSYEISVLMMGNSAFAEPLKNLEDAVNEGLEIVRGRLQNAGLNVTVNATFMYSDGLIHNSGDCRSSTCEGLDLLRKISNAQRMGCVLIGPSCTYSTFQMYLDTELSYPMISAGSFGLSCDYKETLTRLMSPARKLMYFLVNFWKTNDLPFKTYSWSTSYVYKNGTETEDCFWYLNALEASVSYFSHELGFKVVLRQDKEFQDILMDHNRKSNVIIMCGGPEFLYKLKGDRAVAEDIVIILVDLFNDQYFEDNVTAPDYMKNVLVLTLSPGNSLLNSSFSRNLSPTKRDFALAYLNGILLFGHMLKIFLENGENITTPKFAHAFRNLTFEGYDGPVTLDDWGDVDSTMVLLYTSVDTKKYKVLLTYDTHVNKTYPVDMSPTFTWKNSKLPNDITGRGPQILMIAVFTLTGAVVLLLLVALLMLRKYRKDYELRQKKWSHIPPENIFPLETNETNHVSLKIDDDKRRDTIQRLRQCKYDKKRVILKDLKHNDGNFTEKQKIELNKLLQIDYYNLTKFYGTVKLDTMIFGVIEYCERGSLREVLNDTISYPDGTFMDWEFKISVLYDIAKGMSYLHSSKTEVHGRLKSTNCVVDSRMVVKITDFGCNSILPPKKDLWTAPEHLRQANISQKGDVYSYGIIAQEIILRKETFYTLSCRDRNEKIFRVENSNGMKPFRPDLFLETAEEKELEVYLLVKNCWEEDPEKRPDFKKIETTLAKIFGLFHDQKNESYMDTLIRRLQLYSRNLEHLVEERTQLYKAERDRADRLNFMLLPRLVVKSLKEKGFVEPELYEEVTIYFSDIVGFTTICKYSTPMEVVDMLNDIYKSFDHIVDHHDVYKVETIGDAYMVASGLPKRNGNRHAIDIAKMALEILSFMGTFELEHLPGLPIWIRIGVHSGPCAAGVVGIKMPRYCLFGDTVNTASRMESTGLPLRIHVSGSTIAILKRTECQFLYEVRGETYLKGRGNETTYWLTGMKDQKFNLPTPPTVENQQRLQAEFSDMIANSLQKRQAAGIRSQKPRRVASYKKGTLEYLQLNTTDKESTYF
Method: The ability of SEQ ID NO:5, SEQ ID NO:4, SEQ ID NO:3, and SEQ ID NO:6 to activate the intestinal GC-C receptor was assessed in an assay employing the T84 human colon carcinoma cell line (American Type Culture Collection (Bethesda, Md.)). For the assays cells were grown to confluency in 24-well culture plates with a 1:1 mixture of Ham's F12 medium and Dulbecco's modified Eagle's medium (DMEM), supplemented with 5% fetal calf serum and were used at between passages 54 and 60.
Briefly, monolayers of T84 cells in 24-well plates were washed twice with 1 ml/well DMEM, then incubated at 37° C. for 10 min with 0.45 ml DMEM containing 1 mM isobutylmethylxanthine (IBMX), a cyclic nucleotide phosphodiesterase inhibitor. Test peptides (50 μl) were then added and incubated for 30 minutes at 37° C. The media was aspirated and the reaction was then terminated by the addition of ice cold 0.5 ml of 0.1N HCl. The samples were held on ice for 20 minutes and then evaporated to dryness using a heat gun or vacuum centrifugation.

[1] = oral bioavailability in rats, LCMS; format: in vivo, rat; conditions: SEQ ID NO:3 10 mg/kg
Method: Similarly, oral bioavailability was determined in rats using LCMS methodology. Rat plasma samples containing SEQ ID NO:3 and/or SEQ ID NO:6 were extracted using a Waters Oasis MAX 96 well solid phase extraction (SPE) plate. A 200 μL volume of rat plasma was mixed with 200 μL of ^13C9, ^15N—SEQ ID NO:3 in the well of a prepared SPE plate. The samples were drawn through the stationary phase with 15 mm Hg vacuum. All samples were rinsed with 200 μL of 2% ammonium hydroxide in water followed by 200 μL of 20% methanol in water. The samples were eluted with consecutive 100 μL volumes of […] formic acid/water/methanol and 100 μL 5/15/80 formic acid/water/methanol. The samples were dried under nitrogen and resuspended in 100 μL of 20% methanol in water. Samples were analyzed by a Waters Quattro Micro mass spectrometer coupled to a Waters 1525 binary pump with a Waters 2777 autosampler. A 40 μL volume of each sample was injected onto a Thermo Hypersil GOLD C18 column (2.1×50 mm, 5 um). SEQ ID NO:3 and SEQ ID NO:6 were eluted by a gradient over 3 minutes with acetonitrile and water containing 0.05% trifluoroacetic acid. The Quattro Micro mass spectrometer was run in multiple reaction monitoring (MRM) mode using the mass transitions of 764>182 and 682>136 for SEQ ID NO:3 and SEQ ID NO:6 respectively. Using this methodology, SEQ ID NO:3 was dosed orally and by IV to rats at 10 mg/kg. […] In this experiment, the limit of detection (LOD) for SEQ ID NO:6 was 0.78 nM. SEQ ID NO:6 was detected at all time points for the intravenous dose and was not detected beyond 240 min for the oral dose. For non-detected values, the LOD was used as an upper estimate of the concentration of SEQ ID NO:6. The calculated value for AUCp.o., (0-6h) was <1308 nM-min and AUCi.v.,(0-6h) was 1,590,000 nM-min. The 6 h bioavailability of SEQ ID NO:6 determined by circulating plasma levels was 0.08%

pepsin = pepsin (Sus scrofa, UniProt P00791); conditions: pH 2.0, 37° C., up to 3 h
Chain of pepsin (P00791 60-385): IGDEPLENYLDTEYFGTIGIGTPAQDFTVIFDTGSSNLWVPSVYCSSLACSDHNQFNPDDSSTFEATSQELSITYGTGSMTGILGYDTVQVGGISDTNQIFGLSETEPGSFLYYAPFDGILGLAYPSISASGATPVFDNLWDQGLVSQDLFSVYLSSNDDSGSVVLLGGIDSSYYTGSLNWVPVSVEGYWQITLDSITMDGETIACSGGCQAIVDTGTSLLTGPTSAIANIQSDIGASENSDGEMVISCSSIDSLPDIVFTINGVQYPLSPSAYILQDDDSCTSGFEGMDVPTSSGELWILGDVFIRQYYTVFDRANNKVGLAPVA
Method: Samples were collected at 0, 3, and 24 h for all conditions except pepsin digestion and the SGF. For the latter two conditions, samples were obtained at 0, 1, and 3 h. Negative control samples were prepared for initial and final time points. […] All samples were analyzed by LC/MS
500 μL samples of 100 U/mL pepsin (Pepsin porcine gastric mucosa; Sigma-Aldrich, P68871; U=release of 0.01 absorbance at 280 nm (A280) as TCA soluble hydrolysis products per min at 37° C. of hemoglobin) were prepared in the pepsin reaction buffer (100 mM HCl-KCl, pH 2.0) in 5 mL polystyrene round bottom tubes. To the control samples (0 and 24 h), 500 μL of a 1 M ammonium acetate (pepsin inhibitor) stock were added, for a final concentration of 0.5 M. All control and test samples (0, 1, and 3 h) were incubated at 37° C. for 5 min, while shaking. […] Samples were returned to the 37° C. shaking water bath. Reactions were quenched by the addition of 500 μL of 1 M ammonium acetate for a final concentration of 0.5 M (except to the control samples, which already contained 0.5 M ammonium acetate). Samples were cooled on ice and stored at 4° C. until analysis. Upon analysis, samples were transferred to a 1 mL 96-well plate. […] These standards were used to generate a standard curve for quantification of samples. Ten (10) μL injections were made of each sample and standard.

Compound: C[C@@H]1NC(=O)[C@@H]2CCCN2C(=O)[C@H](CC(N)=O)NC(=O)[C@@H]2CSSC[C@H](N)C(=O)N[C@H]3CSSC[C@H](NC1=O)C(=O)N[C@@H]([C@@H](C)O)C(=O)NCC(=O)N[C@H](C(=O)N[C@@H](Cc1ccc(O)cc1)C(=O)O)CSSC[C@H](NC(=O)[C@H](Cc1ccc(O)cc1)NC(=O)[C@H](CCC(=O)O)NC3=O)C(=O)N2 [SEQ ID NO:3] (H-CCEYCCNPACTGCY-OH; disulfide 1-6, 2-10, 5-13; N-terminus and C-terminus assumed)
- TNBS induced hypersensitivity to CRD (WT and GC-C KO mice; GC-C KO mice): A similar effect was not observed
- TNBS induced hypersensitivity to CRD (WT and GC-C KO mice; WT mice): reduces the TNBS induced hypersensitivity to CRD
- activity in GC-C receptor activity assay (intestinal GC-C receptor): activity comparable to SEQ ID NO:4
- 6 h bioavailability when AUC values for SEQ ID NO:6 are included [1]: 0.13%
- Cleavage of SEQ ID NO: 3 by proteolytic substance (pepsin): not detectable
